Reference: patent US8192962B2, “Processes for detecting toxic substances” (Daikin Industries, Ltd., priority 2001, dated 2012)

Tested on: Unknown protein yeast genes
Assay: DNA chip mRNA expression in yeast, unknown protein yeast genes (Table 1)
Type: cell-based, Saccharomyces cerevisiae S288C
In short: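 In this screen, yeast in logarithmic growth are challenged for two hours with a toxic substance at a non-lethal inhibitory concentration. Their mRNA, converted to Cy3- or Cy5-labeled cDNA, hybridizes at 65° C. to a chip spanning every yeast gene, and expression is expressed as a ratio to untreated cells.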

`N#Cc1c(Cl)c(Cl)c(Cl)c(C#N)c1Cl` [(9), 2,4,5,6-tetrachloro-1,3-benzenedicarbonitrile] was tested, and the “The level of expressed mRNA in the presence of chemical substance/The level of expressed mRNA in the absence of chemical substance” value (yeast gene YKL195W, incubated two hours with chemical substance) was 3.6, the “The level of expressed mRNA in the presence of chemical substance/The level of expressed mRNA in the absence of chemical substance” value (yeast gene YKR018C) was 3.9 and the “The level of expressed mRNA in the presence of chemical substance/The level of expressed mRNA in the absence of chemical substance” value (yeast gene YKR046C) was 3.9. The “The level of expressed mRNA in the presence of chemical substance/The level of expressed mRNA in the absence of chemical substance” value (yeast gene YKR091W, incubated two hours with chemical substance) was 1.0, the “The level of expressed mRNA in the presence of chemical substance/The level of expressed mRNA in the absence of chemical substance” value (yeast gene YLR054C, incubated two hours with chemical substance) was 2.7 and the “The level of expressed mRNA in the presence of chemical substance/The level of expressed mRNA in the absence of chemical substance” value (yeast gene YLR149C, incubated two hours with chemical substance) was 6.2. The “The level of expressed mRNA in the presence of chemical substance/The level of expressed mRNA in the absence of chemical substance” value (yeast gene YLR152C, incubated two hours with chemical substance) was 0.6, the “The level of expressed mRNA in the presence of chemical substance/The level of expressed mRNA in the absence of chemical substance” value (yeast gene YLR161W) was 1.0 and the “The level of expressed mRNA in the presence of chemical substance/The level of expressed mRNA in the absence of chemical substance” value (yeast gene YLR177W) was 1.0. For the same compound, the “The level of expressed mRNA in the presence of chemical substance/The level of expressed mRNA in the absence of chemical substance” value (yeast gene YLR194C, incubated two hours with chemical substance) was 0.9, the “The level of expressed mRNA in the presence of chemical substance/The level of expressed mRNA in the absence of chemical substance” value (yeast gene YLR324W, incubated two hours with chemical substance) was 3.1 and the “The level of expressed mRNA in the presence of chemical substance/The level of expressed mRNA in the absence of chemical substance” value (yeast gene YLR338W) was 7.9. The “The level of expressed mRNA in the presence of chemical substance/The level of expressed mRNA in the absence of chemical substance” value (yeast gene YLR346C) was 8.6, the “The level of expressed mRNA in the presence of chemical substance/The level of expressed mRNA in the absence of chemical substance” value (yeast gene YLR350W, incubated two hours with chemical substance) was 0.6 and the “The level of expressed mRNA in the presence of chemical substance/The level of expressed mRNA in the absence of chemical substance” value (yeast gene YLR387C, incubated two hours with chemical substance) was 7.8. The “The level of expressed mRNA in the presence of chemical substance/The level of expressed mRNA in the absence of chemical substance” value (yeast gene YLR460C) was 13.9, the “The level of expressed mRNA in the presence of chemical substance/The level of expressed mRNA in the absence of chemical substance” value (yeast gene YML117W, incubated two hours with chemical substance) was 1.0 and the “The level of expressed mRNA in the presence of chemical substance/The level of expressed mRNA in the absence of chemical substance” value (yeast gene YMR009W, incubated two hours with chemical substance) was 3.4. For the same compound, the “The level of expressed mRNA in the presence of chemical substance/The level of expressed mRNA in the absence of chemical substance” value (yeast gene YMR067C, incubated two hours with chemical substance) was 4.0, the “The level of expressed mRNA in the presence of chemical substance/The level of expressed mRNA in the absence of chemical substance” value (yeast gene YMR090W) was 16.7 and the “The level of expressed mRNA in the presence of chemical substance/The level of expressed mRNA in the absence of chemical substance” value (yeast gene YMR097C, incubated two hours with chemical substance) was 2.1. For the same compound, the “The level of expressed mRNA in the presence of chemical substance/The level of expressed mRNA in the absence of chemical substance” value (yeast gene YMR102C, incubated two hours with chemical substance) was 1.7, the “The level of expressed mRNA in the presence of chemical substance/The level of expressed mRNA in the absence of chemical substance” value (yeast gene YMR107W, incubated two hours with chemical substance) was 6.0 and the “The level of expressed mRNA in the presence of chemical substance/The level of expressed mRNA in the absence of chemical substance” value (yeast gene YMR180C, incubated two hours with chemical substance) was 1.8. The “The level of expressed mRNA in the presence of chemical substance/The level of expressed mRNA in the absence of chemical substance” value (yeast gene YMR184W, incubated two hours with chemical substance) was 2.1, the “The level of expressed mRNA in the presence of chemical substance/The level of expressed mRNA in the absence of chemical substance” value (yeast gene YMR191W, incubated two hours with chemical substance) was 2.2 and the “The level of expressed mRNA in the presence of chemical substance/The level of expressed mRNA in the absence of chemical substance” value (yeast gene YMR251W) was 3.1. For the same compound, the “The level of expressed mRNA in the presence of chemical substance/The level of expressed mRNA in the absence of chemical substance” value (yeast gene YMR295C, incubated two hours with chemical substance) was 1.0, the “The level of expressed mRNA in the presence of chemical substance/The level of expressed mRNA in the absence of chemical substance” value (yeast gene YMR316W, incubated two hours with chemical substance) was 2.1 and the “The level of expressed mRNA in the presence of chemical substance/The level of expressed mRNA in the absence of chemical substance” value (yeast gene YNL044W, incubated two hours with chemical substance) was 0.8. For the same compound, the “The level of expressed mRNA in the presence of chemical substance/The level of expressed mRNA in the absence of chemical substance” value (yeast gene YNL074C, incubated two hours with chemical substance) was 1.5, the “The level of expressed mRNA in the presence of chemical substance/The level of expressed mRNA in the absence of chemical substance” value (yeast gene YNL092W, incubated two hours with chemical substance) was 2.3 and the “The level of expressed mRNA in the presence of chemical substance/The level of expressed mRNA in the absence of chemical substance” value (yeast gene YNL115C, incubated two hours with chemical substance) was 2.6. The “The level of expressed mRNA in the presence of chemical substance/The level of expressed mRNA in the absence of chemical substance” value (yeast gene YNL156C, incubated two hours with chemical substance) was 2.4, the “The level of expressed mRNA in the presence of chemical substance/The level of expressed mRNA in the absence of chemical substance” value (yeast gene YNL234W, incubated two hours with chemical substance) was 2.6 and the “The level of expressed mRNA in the presence of chemical substance/The level of expressed mRNA in the absence of chemical substance” value (yeast gene YNL281W, incubated two hours with chemical substance) was 2.8. The “The level of expressed mRNA in the presence of chemical substance/The level of expressed mRNA in the absence of chemical substance” value (yeast gene YNL305C, incubated two hours with chemical substance) was 2.9, the “The level of expressed mRNA in the presence of chemical substance/The level of expressed mRNA in the absence of chemical substance” value (yeast gene YNR068C, incubated two hours with chemical substance) was 6.7 and the “The level of expressed mRNA in the presence of chemical substance/The level of expressed mRNA in the absence of chemical substance” value (yeast gene YOL032W, incubated two hours with chemical substance) was 4.5. For the same compound, the “The level of expressed mRNA in the presence of chemical substance/The level of expressed mRNA in the absence of chemical substance” value (yeast gene YOL036W, incubated two hours with chemical substance) was 3.1, the “The level of expressed mRNA in the presence of chemical substance/The level of expressed mRNA in the absence of chemical substance” value (yeast gene YOL047C, incubated two hours with chemical substance) was 0.6 and the “The level of expressed mRNA in the presence of chemical substance/The level of expressed mRNA in the absence of chemical substance” value (yeast gene YOL071W, incubated two hours with chemical substance) was 4.4. The “The level of expressed mRNA in the presence of chemical substance/The level of expressed mRNA in the absence of chemical substance” value (yeast gene YOL082W, incubated two hours with chemical substance) was 3.4, the “The level of expressed mRNA in the presence of chemical substance/The level of expressed mRNA in the absence of chemical substance” value (yeast gene YOL083W, incubated two hours with chemical substance) was 2.7 and the “The level of expressed mRNA in the presence of chemical substance/The level of expressed mRNA in the absence of chemical substance” value (yeast gene YOL117W, incubated two hours with chemical substance) was 1.3. For the same compound, the “The level of expressed mRNA in the presence of chemical substance/The level of expressed mRNA in the absence of chemical substance” value (yeast gene YOL131W, incubated two hours with chemical substance) was 8.4, the “The level of expressed mRNA in the presence of chemical substance/The level of expressed mRNA in the absence of chemical substance” value (yeast gene YOL150C) was 10.8 and the “The level of expressed mRNA in the presence of chemical substance/The level of expressed mRNA in the absence of chemical substance” value (yeast gene YOL162W, incubated two hours with chemical substance) was 12.0. The “The level of expressed mRNA in the presence of chemical substance/The level of expressed mRNA in the absence of chemical substance” value (yeast gene YOR019W, incubated two hours with chemical substance) was 3.5, the “The level of expressed mRNA in the presence of chemical substance/The level of expressed mRNA in the absence of chemical substance” value (yeast gene YOR161C) was 1.0 and the “The level of expressed mRNA in the presence of chemical substance/The level of expressed mRNA in the absence of chemical substance” value (yeast gene YOR197W, incubated two hours with chemical substance) was 0.8. For the same compound, the “The level of expressed mRNA in the presence of chemical substance/The level of expressed mRNA in the absence of chemical substance” value (yeast gene YPL087W, incubated two hours with chemical substance) was 1.0, the “The level of expressed mRNA in the presence of chemical substance/The level of expressed mRNA in the absence of chemical substance” value (yeast gene YPL150W) was 3.1 and the “The level of expressed mRNA in the presence of chemical substance/The level of expressed mRNA in the absence of chemical substance” value (yeast gene YPL196W, incubated two hours with chemical substance) was 10.9. For the same compound, the “The level of expressed mRNA in the presence of chemical substance/The level of expressed mRNA in the absence of chemical substance” value (yeast gene YPL206C, incubated two hours with chemical substance) was 1.7, the “The level of expressed mRNA in the presence of chemical substance/The level of expressed mRNA in the absence of chemical substance” value (yeast gene YPL222W, incubated two hours with chemical substance) was 7.4 and the “The level of expressed mRNA in the presence of chemical substance/The level of expressed mRNA in the absence of chemical substance” value (yeast gene YPL225W) was 1.0. For the same compound, the “The level of expressed mRNA in the presence of chemical substance/The level of expressed mRNA in the absence of chemical substance” value (yeast gene YPR023C, incubated two hours with chemical substance) was 4.4 and the “The level of expressed mRNA in the presence of chemical substance/The level of expressed mRNA in the absence of chemical substance” value (yeast gene YPR151C, incubated two hours with chemical substance) was 3.0.
